Measurements: article PMC5983681, “PIEZO1 Channel Is a Potential Regulator of Synovial Sarcoma Cell-Viability” (International Journal of Molecular Sciences, 2018)

Target: T1, PIEZO1 (SW982 cells) (Homo sapiens, UniProt Q92508)
T1 construct: endogenous full-length channel in native SW982 cells; response lost on PIEZO1 siRNA knockdown
Experiment: Fura-2 Ca2+ imaging
Format: cell-based
Settings: agonist; SBS with […] Ca2+, pH […]-26 °C; native SW982 cells, […] tested; bound only; read-out: apparent EC50

T1 sequence (Q92508 whole entry): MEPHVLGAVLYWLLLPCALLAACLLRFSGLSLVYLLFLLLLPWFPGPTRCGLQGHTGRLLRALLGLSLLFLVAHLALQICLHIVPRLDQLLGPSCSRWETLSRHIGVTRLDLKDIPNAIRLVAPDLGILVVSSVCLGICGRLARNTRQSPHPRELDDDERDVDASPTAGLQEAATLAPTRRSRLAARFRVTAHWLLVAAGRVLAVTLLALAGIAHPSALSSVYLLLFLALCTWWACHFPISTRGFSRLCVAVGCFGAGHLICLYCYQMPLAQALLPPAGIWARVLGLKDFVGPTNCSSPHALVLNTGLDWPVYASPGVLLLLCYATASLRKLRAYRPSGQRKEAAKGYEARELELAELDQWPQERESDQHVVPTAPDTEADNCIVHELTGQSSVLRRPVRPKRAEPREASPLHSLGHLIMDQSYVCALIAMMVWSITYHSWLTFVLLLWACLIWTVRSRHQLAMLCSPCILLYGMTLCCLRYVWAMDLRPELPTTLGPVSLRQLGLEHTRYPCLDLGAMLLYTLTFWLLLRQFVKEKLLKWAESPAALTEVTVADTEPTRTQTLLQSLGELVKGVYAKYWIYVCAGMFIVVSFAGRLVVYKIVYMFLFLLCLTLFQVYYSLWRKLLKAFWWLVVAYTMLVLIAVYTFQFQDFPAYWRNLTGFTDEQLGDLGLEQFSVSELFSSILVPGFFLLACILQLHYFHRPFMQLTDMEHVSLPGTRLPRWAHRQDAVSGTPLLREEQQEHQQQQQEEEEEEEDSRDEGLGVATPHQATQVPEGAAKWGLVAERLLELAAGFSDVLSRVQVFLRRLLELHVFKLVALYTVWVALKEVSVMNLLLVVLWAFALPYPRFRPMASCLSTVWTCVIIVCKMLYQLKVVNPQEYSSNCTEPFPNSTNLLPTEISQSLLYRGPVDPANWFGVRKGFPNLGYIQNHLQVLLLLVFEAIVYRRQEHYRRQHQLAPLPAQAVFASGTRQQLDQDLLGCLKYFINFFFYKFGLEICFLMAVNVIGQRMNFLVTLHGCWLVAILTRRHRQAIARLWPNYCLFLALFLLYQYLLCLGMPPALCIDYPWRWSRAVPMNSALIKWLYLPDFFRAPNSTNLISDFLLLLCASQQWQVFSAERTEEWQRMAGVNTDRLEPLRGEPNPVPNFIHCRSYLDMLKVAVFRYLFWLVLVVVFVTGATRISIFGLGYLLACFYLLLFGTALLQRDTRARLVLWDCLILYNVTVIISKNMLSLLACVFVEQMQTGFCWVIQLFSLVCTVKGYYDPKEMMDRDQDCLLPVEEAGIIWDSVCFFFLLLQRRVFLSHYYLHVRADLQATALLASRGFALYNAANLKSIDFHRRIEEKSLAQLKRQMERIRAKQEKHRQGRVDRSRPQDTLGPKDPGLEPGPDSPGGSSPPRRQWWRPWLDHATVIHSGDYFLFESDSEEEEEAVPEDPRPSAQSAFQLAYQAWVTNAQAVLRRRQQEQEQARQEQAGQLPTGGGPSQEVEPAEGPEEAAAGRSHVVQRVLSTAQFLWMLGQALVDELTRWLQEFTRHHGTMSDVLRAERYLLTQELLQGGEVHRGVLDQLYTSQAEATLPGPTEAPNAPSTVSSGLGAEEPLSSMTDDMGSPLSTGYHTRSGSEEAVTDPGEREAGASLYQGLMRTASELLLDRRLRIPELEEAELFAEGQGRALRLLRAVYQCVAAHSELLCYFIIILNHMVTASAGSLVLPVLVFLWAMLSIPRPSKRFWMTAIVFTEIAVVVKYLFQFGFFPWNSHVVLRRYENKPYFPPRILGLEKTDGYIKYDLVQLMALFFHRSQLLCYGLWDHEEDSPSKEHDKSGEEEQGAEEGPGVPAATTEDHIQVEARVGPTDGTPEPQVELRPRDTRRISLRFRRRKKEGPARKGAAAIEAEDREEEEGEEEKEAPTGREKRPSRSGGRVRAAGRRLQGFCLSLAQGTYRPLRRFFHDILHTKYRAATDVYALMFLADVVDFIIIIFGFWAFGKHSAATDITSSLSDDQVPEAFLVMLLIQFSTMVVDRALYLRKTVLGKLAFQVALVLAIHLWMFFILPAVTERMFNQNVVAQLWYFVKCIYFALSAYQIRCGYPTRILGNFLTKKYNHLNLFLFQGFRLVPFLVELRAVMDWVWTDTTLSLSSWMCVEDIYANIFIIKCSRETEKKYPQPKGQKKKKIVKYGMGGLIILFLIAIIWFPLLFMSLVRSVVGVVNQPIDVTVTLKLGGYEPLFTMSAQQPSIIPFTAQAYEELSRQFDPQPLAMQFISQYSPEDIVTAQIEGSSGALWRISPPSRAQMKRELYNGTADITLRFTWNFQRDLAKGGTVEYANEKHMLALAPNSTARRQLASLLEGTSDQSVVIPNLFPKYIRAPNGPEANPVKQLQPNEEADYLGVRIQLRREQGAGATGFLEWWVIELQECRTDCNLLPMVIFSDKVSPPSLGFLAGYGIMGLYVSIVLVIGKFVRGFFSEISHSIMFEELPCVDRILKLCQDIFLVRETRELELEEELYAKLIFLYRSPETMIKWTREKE

EC50: < 1000 nM
Compound: Clc1cccc(Cl)c1CSc1nnc(-c2cnccn2)s1 [Yoda1, 2-[5-[[(2,6-Dichlorophenyl)methyl]thio]-1,3,4-thiadiazol-2-yl]-pyrazine]
